Test results published in patent publication US4308396A, “Thromboxane A2 analogues” (priority 1979, dated 1981).
Read-outs that look alike come from different tables or passages of the source.

Key:
[1] = test system: human platelets; test: Platelet aggregation in citrated human platelet-rich plasma; format: cell-based
Procedure: (§1) Platelet aggregation was studied in an aggregometer (Chronolog Corp., Phila., PA) using 0.5 ml citrated human platelet-rich plasma at 35° C. One minute after addition of analogue (up to 2 μl of a 25 mM solution in ethanol) aggregation was initiated by addition of sodium arachidonate (0.3-0.5 mM), ADP (2 μM) collagen (1 μg/ml), epinephrine (50 μM), 9,11-azo-PGH2, (0.1-0.6 μM), 9,11-methanoepoxy-PGH2, (0.3-0.6 μM), or 9,11-epoxy methano-PGH2 (1-3 μM). The analogues were also tested for their effects on the inhibition of ADP-induced aggregation by 2 nM prostacyclin or 20 nM prostaglandin D2.

[2] = biological target: T1, thromboxane synthetase (Oryctolagus cuniculus, UniProt G1TAZ9); test: Thromboxane synthesis from 1-14C-arachidonic acid by washed rabbit platelets; format: cell-based
T1 sequence (G1TAZ9 1-530): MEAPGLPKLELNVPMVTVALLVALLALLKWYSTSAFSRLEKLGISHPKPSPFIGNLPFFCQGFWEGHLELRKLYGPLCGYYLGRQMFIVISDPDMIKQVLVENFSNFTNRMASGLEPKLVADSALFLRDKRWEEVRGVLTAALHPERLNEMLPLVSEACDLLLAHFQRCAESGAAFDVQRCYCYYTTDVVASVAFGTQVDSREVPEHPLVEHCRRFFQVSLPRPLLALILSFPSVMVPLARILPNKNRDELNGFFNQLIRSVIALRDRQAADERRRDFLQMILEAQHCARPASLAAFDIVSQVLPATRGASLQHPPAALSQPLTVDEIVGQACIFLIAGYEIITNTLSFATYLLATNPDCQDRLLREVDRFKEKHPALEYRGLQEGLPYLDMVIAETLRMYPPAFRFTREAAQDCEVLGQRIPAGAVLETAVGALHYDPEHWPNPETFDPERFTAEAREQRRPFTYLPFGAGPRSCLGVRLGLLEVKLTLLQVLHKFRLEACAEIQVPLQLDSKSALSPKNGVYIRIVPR
Procedure: (§2) To study the effects of analogues on thromboxane synthesis, rabbit platelets were washed free of plasma, resuspended in buffered saline solution and incubated at 37° C. for 5 minutes with analogues at either 10 μM or 100 μM. Radioactive 1-^14 C-arachidonic acid (0.5 μCi, SA 50 Ci/mol, New England Nuclear, Boston, Mass.) was added and incubation was continued for 15 minutes, lipids were extracted by the method of Folch, J. Biol. Chem. 226, 497 (1957), and subjected to thin layer chromatography. In additional experiments, human platelet-rich plasma was incubated at 37° C. in the aggregometer for 1 minute with analogues. Sodium arachidonate (0.4 mM) was added and incubation was continued for 5 minutes. The samples were decanted into one-tenth vol. 100 mM EDTA, centrifuged for 2 minutes at 15,000 g, and thromboxane B2 in the supernatant was determined by radioimmunoassay.

[3] = test system: thromboxane synthetase; test: Thromboxane B2 formation in human platelet-rich plasma (radioimmunoassay); format: cell-based; conditions: 50 μM
Procedure: as §2

[4] = test system: cyclooxygenase; test: Effect on cyclooxygenase, washed rabbit platelets; format: cell-based; conditions: inferred from prostaglandin increases
Procedure: as §2

[5] = test system: Prostacyclin Synthetase; test: Prostacyclin synthetase, sheep vesicular glands, 1-14C-arachidonic acid as substrate; format: biochemical; conditions: 100 μM; Table 1
Procedure: The effects of analogues on prostacyclin synthetase were determined using sheep vesicular glands as the enzyme source and 1-^14 C-arachidonic acid as substrate essentially as described by Cottee, F. et al, in Prostaglandins, 14, 413 (1978).

[6] = test system: human platelets; test: Effect on the inhibition of ADP-induced platelet aggregation by prostacyclin or prostaglandin D2; format: cell-based
Procedure: as §1

[7] = biological target: Thromboxane Synthetase; test: Thromboxane synthetase inhibition (Table 1); format: biochemical; conditions: read-out: Inhibits Thromboxane Synthetase, ID50
Procedure: as §2

[8] = test system: cat liver lysosomes; test: Release of cathepsin D from cat liver large granule fraction (lysosome stabilization); format: cell-based; conditions: 1 μM
Procedure: The perfusion apparatus consists of a reservoir containing 20 ml of warm (37° C.) oxygenated (95% O2 +5% CO2) K-H solution which bathes the coronary artery and serves as recirculating perfusate. An increase in perfusion pressure indicates vasoconstriction, whereas a decrease in perfusion pressure signifies vasodilation. Following an initial 1 hr. equilibrium period, vascular responsiveness was established by adding 25 mM KCl. After washing with fresh K-H solution for 20-30 minutes, the preparation achieved a relatively constant low basal tone. Basal perfusion pressure averaged 50±2.5 mm Hg. Fresh K-H dilutions of stock thromboxane analog concentrations were added to the perfusate reservoir in 0.1-0.2 ml volumes. Changes in perfusion pressure in response to thromboxane analogue addition generally plateaus within 5 minutes of administration. Constriction of the arteries was induced by addition of 15 or 30 nM 9,11-azo-prostaglandinendoperoxide (azo-PGH2), or 1 μM 9,11-methanoepoxy-PGH2. […] The effect of thromboxane analogues on the release of cathepsin D from the cat liver large granule fraction was determined as described in Lefer, A. M. et al, Science 200, 52 (1978).

[9] = test system: cat coronary arteries; test: Cat coronary artery constriction (perfused right coronary artery, constriction induced by endoperoxide analogues); format: cell-based; conditions: for inhibition at 0.1 µM: analogue 100 nM
Procedure: Thromboxane A2 analogues (up to 4 μl of a 2.5 mM solution in ethanol) were tested for their effects on cat coronary arteries continuously prefused with 10 ml Krebs-Henseleit solution as described below.
Cats of either sex (2.5-3.5 kg) were anesthetized with sodium pentobarbital (30 mg/kg) given intravenously. Hearts were reapidly excised and placed in oxygenated (95% O2 +5% CO2) ice-cold Krebs-Henseleit (K-H) solution of the following millimolar composition: NaCl, 118; KCl, 4.75; CaCl2.H2 O, 2.54; KH2 PO4, 1.19; MgSO4.7H2 O, 1.19; NaHCO3, 12.5; glucose, 10.00. A 20-gauge stainless steel cannula was inserted into the right coronary artery via the coronary ostium. Distal to the cannula, approximately 1 cm of coronary artery was dissected free of surrounding tissue. The section of right coronary artery with the cannula in place was excised from the heart and immediately transferred to a constant flow perfusion apparatus.
The perfusion apparatus consists of a reservoir containing 20 ml of warm (37° C.) oxygenated (95% O2 +5% CO2) K-H solution which bathes the coronary artery and serves as recirculating perfusate. An increase in perfusion pressure indicates vasoconstriction, whereas a decrease in perfusion pressure signifies vasodilation. Following an initial 1 hr. equilibrium period, vascular responsiveness was established by adding 25 mM KCl. After washing with fresh K-H solution for 20-30 minutes, the preparation achieved a relatively constant low basal tone. Basal perfusion pressure averaged 50±2.5 mm Hg. Fresh K-H dilutions of stock thromboxane analog concentrations were added to the perfusate reservoir in 0.1-0.2 ml volumes. Changes in perfusion pressure in response to thromboxane analogue addition generally plateaus within 5 minutes of administration. Constriction of the arteries was induced by addition of 15 or 30 nM 9,11-azo-prostaglandinendoperoxide (azo-PGH2), or 1 μM 9,11-methanoepoxy-PGH2. These compounds and their effects are described in the following references: Corey et al, PNAS, U.S.A. 72, 3355 (1975); Bundy, G. L., Tetr.Lett, 1957 (1975); Malmsten, C., Life Sci, 18, 169 (1976) and Smith, J. B., et al, in Platelets and Thrombosis, Ed. by Mills, D.C.B. et al, Academic Press, London/N.Y. 1977, pp 83-95. The effect of thromboxane analogues on the release of cathepsin D from the cat liver large granule fraction was determined as described in Lefer, A. M. et al, Science 200, 52 (1978). […]

[10] = test system: blood platelets; conditions: cited from earlier work; for effect on platelet aggregation: Gorman et al, Fitzpatrick et al
[11] = cited from earlier work
[12] = test system: smooth muscle, blood vessels; conditions: cited from earlier work

Compound: CCCCCC(O)C=CC1CC2CC(C1CC=CCCCC(=O)O)C2(C)C (single isomer, unassigned) [16R epimer of the analogue III (R^1 =R^2 =--OH), Pinane Thromboxane A2, free acid]
- effectiveness as a prostaglandin endoperoxide antagonist, relative to the 16S epimer ([1]; compared with 16S epimer): approximately ten times less effective

Compound: CCCCCC(O)C=CC1CC2CC(C1CC=CCCCC(=O)O)C2(C)C (single isomer, unassigned) [III (R^1 =R^2 =OH, 16S), Pinane Thromboxane A2, free acid]
- platelet aggregation induced by arachidonic acid ([1]; 10 μM): abolished
- platelet aggregation induced by collagen ([1]; 10 μM): partially inhibited
- primary aggregation induced by ADP ([1]; 10 μM): did not inhibit
- primary aggregation induced by epinephrine ([1]; 10 μM): did not inhibit
- second wave of aggregation induced by ADP ([1]; 10 μM): abolished
- second wave of aggregation induced by epinephrine ([1]; 10 μM): abolished
- arachidonic acid-induced aggregation in human platelet-rich plasma ([1]; 50 μM): abolished
- aggregation induced by 9,11-azo-PGH2 ([1]; 1-15 μM, dose-dependent): inhibited
- aggregation induced by 9,11-epoxymethano-PGH2 ([1]; 1-15 μM, dose-dependent): inhibited
- aggregation induced by 9,11-methanoepoxy-PGH2 ([1]; 1-15 μM, dose-dependent): inhibited
- IC50 ([1]; Homo sapiens, Platelet, Table 1, read-out: Inhibits Aggregation by Prostaglandin Endoperoxide Analogues, ID50): 2000 nM
- inhibition at 10 µM ([2]; 10 μM, read-out: inhibition of thromboxane B2 formation from 1-14C-arachidonic acid): 23%
- inhibition at 100 µM ([2]; 100 μM, read-out: inhibition of thromboxane B2 formation from 1-14C-arachidonic acid): 83%
- radioactive prostaglandins E2, D2 and F2 α ([2]; with thromboxane B2 inhibition): corresponding increases
- reduction of thromboxane B2 formation in human platelet-rich plasma [3]: 50%
- effect on cyclooxygenase [4]: not on cyclooxygenase
- effect on Prostacyclin Synthetase [5]: no effect
- effect on the inhibition of aggregation by prostaglandin D2 ([6]; 10 μM): nor did it affect
- effect on the Inhibition of Platelet Aggregation by Prostacyclin ([6]; Table 1): no effect
- effect on the Inhibition of Platelet Aggregation by Prostaglandin D2 ([6]; Table 1): no effect
- IC50 [7]: 50000 nM
- inhibition of the release of cathepsin D from cat liver lysosomes ([8]; 4 experiments): significant inhibition (p<0.005)
- Stabilizes Lysosomes ([8]; Table 1): Stabilizes Lysosomes
- IC50 ([9]; Felis catus, Table 1, read-out: Inhibits Coronary Artery Contraction by Prostaglandin Endoperoxide Analogues, ID50): 100 nM
- inhibition at 0.1 µM ([9]; Felis catus, read-out: reduction of constriction induced by 15 nM 9,11-azo-PGH2): 73%
- inhibition at 0.1 µM ([9]; Felis catus, read-out: reduction of constriction induced by 30 nM 9,11-azo-PGH2): 50%
- constriction induced by 30 nM 9,11-azo-PGH2 ([9]; analogue 1 μm): abolished

Compound: CCCCCC(O)C=CC1C2CC(N=N2)C1CC=CCCCC(=O)O (stereo not shown) [9,11-azo-PGH2, 9, 11-azo prostaglandin endoperoxide, reference compound]
- effect on platelet aggregation [10]: has aggregating activity
- Mean constriction at 15 nM 9,11-azo-PGH2 ([9]; 15 nM, three experiments): 32 mm Hg
- Mean constriction at 30 nM 9,11-azo-PGH2 ([9]; 30 nM, three experiments): 53 mm Hg

Compound: CCCCCCC=CC1C2CC(N=N2)C1CC=CCCCC(=O)O (stereo not shown) [15-deoxy-9,11-azo-PGH2]
- effect on platelet aggregation [10]: inhibits platelet aggregation

Compound: CCCCCC/C=C/C1C2CC(ON2)C1C/C=C\CCCC(=O)O (stereo not shown) [15-deoxy-9,11-epoxyimino-PGH2]
- effect on platelet aggregation [10]: inhibits platelet aggregation

Compound: CCCCCC(O)C=CC1C(O)CC2OC(=CCCCC(=O)O)CC21 (stereo not drawn) [Prostacyclin, 6,9α-oxido-11α, 15α-dihydroxyprosta (Z) 5, E(13)-dienoic acid]
- half-life under physiological conditions ([11]; pH 7.4): about 2 minutes
- dilation of blood vessels [12]: powerful action as a dilator of blood vessels
- effect on platelet aggregates after they have formed [10]: destroys platelet aggregates after they have formed
- inhibition of blood platelet aggregation ([10]; compared with all prostaglandins discovered to date): most potent inhibitor of blood platelet aggregation

Compound: CCCCC[C@H](O)/C=C/[C@H]1O[C@H]2C[C@H](O2)[C@@H]1C/C=C\CCCC(=O)O [TA2, thromboxane A2]
- half-life under physiological conditions ([11]; pH 7.4 and 37° C.): 30 seconds
- smooth muscle constricting properties [12]: smooth muscle constricting
- thrombotic properties [10]: potent thrombotic
